Results as given in publication PMC9718777, “A growth selection system for the directed evolution of amine-forming or converting enzymes” (Nature Communications, 2022).

Legend:
[1] = molecular target: T1, AtTA(wt), (R)-selective amine transaminase (Aspergillus terreus, UniProt Q0C8G1); test: specific activity of purified enzyme with pyruvate; format: biochemical
T1 construct: gene ATEG_10023
T1 sequence (Q0C8G1 1-325): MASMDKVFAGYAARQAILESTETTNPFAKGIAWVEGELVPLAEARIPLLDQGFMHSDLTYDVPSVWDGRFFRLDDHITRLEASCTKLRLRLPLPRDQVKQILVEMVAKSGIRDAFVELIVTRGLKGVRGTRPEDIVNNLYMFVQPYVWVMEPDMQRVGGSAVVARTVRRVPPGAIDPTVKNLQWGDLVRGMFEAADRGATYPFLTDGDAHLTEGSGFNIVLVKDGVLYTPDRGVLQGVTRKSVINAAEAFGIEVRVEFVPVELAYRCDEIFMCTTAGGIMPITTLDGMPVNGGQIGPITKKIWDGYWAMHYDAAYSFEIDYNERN

[2] = molecular target: T2, AtTA(RHC), (R)-selective amine transaminase (Aspergillus terreus, UniProt Q0C8G1, H55R/F115H/E117C); test: specific activity of purified variant with pyruvate; asymmetric synthesis; format: biochemical
T2 construct: gene ATEG_10023

[3] = molecular target: T1, AtTA(wt), (R)-selective amine transaminase; test: specific activity (benchmark substrate); format: biochemical
[4] = molecular target: T3, PcPAL(wt), phenylalanine ammonia lyase (Petroselinum crispum, UniProt P24481); test: specific activity of purified enzyme; format: biochemical
T3 construct: gene PAL1

[5] = molecular target: T4, PcPAL(AI), phenylalanine ammonia lyase (Petroselinum crispum, UniProt P24481, L134A/L256I); test: specific activity of purified variant (amination of […]); format: biochemical
T4 construct: gene PAL1; purified variant of full-length PcPAL, recombinant in E. coli; MIO-dependent homotetramer

[6] = molecular target: T3, PcPAL(wt), phenylalanine ammonia lyase; test: specific activity; format: biochemical
C[C@H](N)c1cccc2ccccc12 = test: purified protein; format: biochemical, Microbacterium oxydans; conditions: FAD active site
purified protein = substrate: C[C@H](N)c1cccc2ccccc12; test: purified protein; format: biochemical, Microbacterium oxydans; conditions: FAD active site; remark: listed apart in the source

Molecule: CC(C)(C)OC(=O)N1CCC[C@@H](N)C1 [(R)-1, (R)-1-Boc-3-aminopiperidine]
- specific activity of purified enzyme with pyruvate [1]: 0.038 U/mg
- specific activity of purified variant with pyruvate; asymmetric synthesis [2]: 4.2 U/mg

Molecule: C[C@@H](N)c1ccccc1 [(R)-1-phenylethylamine]
- specific activity (benchmark substrate) [3]: 2.9 U/mg

Molecule: N[C@@H](Cc1cccc2ccccc12)C(=O)O [(S)-5, (S)-2-amino-3-(naphthalen-1-yl)propanoic acid]
- specific activity of purified enzyme [4]: 0.0027 U/mg

Molecule: O=C(O)/C=C/c1cccc2ccccc12 [compound 6, 6]
- specific activity of purified variant (amination of 6) [5]: 0.55 U/mg

Molecule: N[C@@H](Cc1ccccc1)C(=O)O [ʟ-phenylalanine]
- specific activity [6]: 0.147 U/mg

Molecule: CHAO(MVLM), cyclohexylamine oxidase (Microbacterium oxydans; L182V/M209L/T181M/Y304M)
- Km (C[C@H](N)c1cccc2ccccc12): 2.2 mM

B1: CHAO(wt), cyclohexylamine oxidase (Microbacterium oxydans) (protein)
chain: THLNTYESVTPDPDVDVIIIGAGISGSAAAKALHDQGASVLVVEANDRIGGRTWTEQEGAPGGPIDYGGMFIGETHTHLIELGTSLGLEMTPSGKPGDDTYIVAGNVLRAPDDQLDPNLPFVPEFLSSLKALDELADSVGWDQPWASPNAAALDSKTVATWLAETIESEEVRRLHTVIVNTLLGADPYEVSLLYWAYYVSECEGIQSLMGTRDGAQWAWWFGGAAQVSWRIADAIGRDKFLLEWPVDRIEHDESGVTLFSGQRSLRARHIVIAMSPLAANQIRFEPALPTSRAQLQARAPMGRYYKVQARYPSSFWVEQGYSGALLDTEDVGVFLLDGTKPTDTLATLIGFIGGSNYDRWAAHTPQERERAFLDLLVKAFGPQAADPSYFHETDWTQQEWAKGGPVTYMPPGVLANFGAALRDPVGKVHFAGTEASFQWSGYMEGGVRAGQKAAAAIAEELERTANKGALV
- Km (purified protein): 4.5 mM
